# In patent publication US8637040B2, “Genus-wide chlamydial peptide vaccine antigens” (priority 2008, dated 2014):
# Legend:
# Pep4, Pep7, Pep8, Pep10 = test: Cross-reactivity between peptides in ELISA; assay type: binding; conditions: sera of mice immunized with a single peptide
# Description: Blood was collected prior to immunizations and prior to the two boosts. Sera were tested in ELISA. The ELISA method used in the present examples, in which many if not all the parameters and conditions may be varied or modified in ways that are completely conventional in the art, is described below. • 1. 96 well plates (Immulon HBX4) were coated with 50 μl of diluted antigen (peptides at 1 μg/well made in carbonate buffer) and incubated overnight at 4° C. • 2. Unbound antigen was removed by flicking the contents of the plate into a sink without further washing. • 3. Non-specific binding was blocked or prevented by adding 300 μL/well of 4% BSA/PBS-Tween 20 (0.05%). This was allowed to incubate for 2 hour at room temperature. • 4. The plates were washed once with PBS-Tween 20 (0.05%) and 50 μl of primary antibody was added per well at appropriate dilutions. When using serum, the starting dilution was 1:40 and was further diluted by doublings to 1:80, 1:160, and 1:320 (or higher as desired). Plates were incubated for 1 hour at 37° C. • 5. Plates were washed three times with PBS-Tween (0.05%) as above and 100 μl of secondary antibody was added per well at appropriate dilutions. For alkaline phosphatase-conjugated goat anti-mouse IgG-AP, a dilution of 1:500 was used here. Plates were incubated for 1 hour at 37° C. • 6. Plates were again washed three times as above and 200 μl of substrate solution for Alkaline phosphatase (p-nitro phenyl phosphate or pNPP) was added at a concentration of 5 mg/ml. The color reaction was read in an automated microplate reader at a frequency of […] and the absorbance (or optical density) was registered (referred to as A405 or OD405) Several important observations were made in these tests against the 4 peptides: (a) all 4 peptides were immunogenic and induced increasing anti-peptide responses with subsequent boosts in all mice (except in one non-responder) (FIG. 3). […] See also FIG. 16A-16B
# Both of these are category #1 peptides. […] That supports the notion that CDR1 and CDR3 of mAb2 are antigenically distinct.
# C trachomatis = test: DFA staining of vaginal smears after challenge of peptide-immunized mice; assay type: in vivo, mouse; conditions: mice immunized three times at 100 μg doses; days 7 and 14 post-challenge
# Description: Mice are challenged with a human biovar of C trachomatis (K or E serovars for urogenital infections; C or B serovars for ocular infection).
# Groups of 4-8 mice are “masked” as to pretreatment before challenge with live elementary bodies (EB). At weekly intervals through at least 4 wks, vaginal (or conjunctival) swabs are collected for isolation culture and direct fluorescence antibody staining for EB.
# Using the murine models described above, the present inventors immunized mice with one of the four peptides (Pep4, 7, 8 or 10) administered three times at 100 μg doses. Results of direct fluorescent antibody (DFA) staining are summarized for days 7 and 14 post-challenge in FIGS. 10-11.
# [1] = Encapsulation of Pep4 in PLGA nanoparticles and peptide release; assay type: physicochemical; conditions: carbonate buffer, ELISA with anti-Pep4 antiserum standard curve
# Description: One preferred approach to the preparation of peptide-loaded polylactide (PLA) or PLGA micro- and/or nanoparticles follows. Biodegradable PLA or PLGA nanoparticles (NPs) loaded with the selected peptides is prepared using a modified version of the double emulsion solvent evaporation technique, in a procedure similar to that previously described by Li and co-workers (139). […] Briefly, an aqueous solution of the peptide is emulsified in dichloromethane containing the PLGA (using an ultrasonic homogenizer), thus forming the primary water-in-oil (w/o) emulsion. The prepared w/o emulsion is then emulsified in a second aqueous phase containing polyvinyl alcohol (PVA) as stabilizer, thus resulting in the multiple w/o/w emulsion. The double emulsion is later added into a large volume of aqueous solution of PVA, and stirred for several hours to evaporate the organic solvent. The resulting nanoparticles are then collected by centrifugation and washed (removing PVA) several times before lyophilization to remove the remaining water (139,140). The powder is kept at −80° C. until use. […] Optimal peptide loading concentrations for protective immunization are determined empirically, e.g., by comparing orally delivered peptide-NP to free peptide delivered subcutaneously. […]
# mice = test: Anti-Pep4 ELISA after SC immunization with free vs. PLA-microencapsulated Pep4; assay type: in vivo, mouse; conditions: SC x 3; free Pep4 40 μg, Pep4-MP 10, 20 and 40 μg
# Description: FIG. 17A-17F show results in ELISA of sera of mice immunized SC with various doses of the Pep4 as immunogen antigen either as free peptide or encapsulated in PLA microparticles (Pep4-MP). MP's were loaded at levels of between about 7.5 and about 9 μg peptide per mg PLA. Δ-Δ: results of pre-bleeds (before immunization). (▴-▴: results after a single primary immunization. ◯-◯: results after 1st boost. ●-●: results after 2nd boost. ▾-▾: results at the time of terminal bleed (day 28). Each point represents the mean absorbance value (OD405) for the sera of 4 or 5 individual mice of the designated group.
# Additional studies were conducted to evaluate and compare the effects of immunization with the present peptides in free vs. microencapsulated form in PLA microparticles (MPs). Results are shown in FIGS. 17, 18A-18F and 19A-19B.
# Mice were immunized subcutaneously 3 times (primary, 1st first boost at day 14, 2nd boost at day 28) according to a schedule shown below with the indicated peptide antigen or soluble mAb2 polypeptide or were control animals that were infected but not immunized (relevant for FIG. 18A-F). Free Pep4 peptide was tested at the 40 μg dose, whereas Pep4-MP was tested at 10, 20 and 40 μg doses. Blood was collected before each immunization and at the end of the experiment (day +28).
sequence,measurement,setting,value
AFPQFRSATLLL [Pep4],cross-reactivity of raised Abs with Pep7 (ELISA),"Pep4, Pep7, Pep8, Pep10",cross reacted
same,DFA scores,C trachomatis,reduced DFA scores
same,bacterial shedding measured by DFA staining,C trachomatis,reduced bacterial shedding
same,release of peptide,[1],about 3.8 μg/ml/day
same,anti-Pep4 antibody responses (ELISA),mice,not as immunogenic as encapsulated Pep4 at equal or lower doses
